The target of one test is T1, hsTRPM2 (Homo sapiens, UniProt O94759).
T1 construct: gene TRPM2; full-length wild-type cDNA in modified pIRES-hrGFP-2a, transient in HEK-293 cells; homotetramer; inside-out patches (C-terminal 3xHA tag only for surface expression tests)
Description: inside-out patch clamp, HEK-293 cells, -60 mV, dose-response of current activation. In kind it is biochemical.

In the next test the target is T2, nvTRPM2 (Nematostella vectensis, UniProt A7T1N0).
T2 construct: gene TRPM2; full-length wild-type cDNA in modified pIRES-hrGFP-2a, transient in HEK-293 cells; homotetramer; inside-out patches (C-terminal 3xHA tag only for surface expression tests)
The test is described as above. In kind it is biochemical.

T1 sequence (O94759 whole entry): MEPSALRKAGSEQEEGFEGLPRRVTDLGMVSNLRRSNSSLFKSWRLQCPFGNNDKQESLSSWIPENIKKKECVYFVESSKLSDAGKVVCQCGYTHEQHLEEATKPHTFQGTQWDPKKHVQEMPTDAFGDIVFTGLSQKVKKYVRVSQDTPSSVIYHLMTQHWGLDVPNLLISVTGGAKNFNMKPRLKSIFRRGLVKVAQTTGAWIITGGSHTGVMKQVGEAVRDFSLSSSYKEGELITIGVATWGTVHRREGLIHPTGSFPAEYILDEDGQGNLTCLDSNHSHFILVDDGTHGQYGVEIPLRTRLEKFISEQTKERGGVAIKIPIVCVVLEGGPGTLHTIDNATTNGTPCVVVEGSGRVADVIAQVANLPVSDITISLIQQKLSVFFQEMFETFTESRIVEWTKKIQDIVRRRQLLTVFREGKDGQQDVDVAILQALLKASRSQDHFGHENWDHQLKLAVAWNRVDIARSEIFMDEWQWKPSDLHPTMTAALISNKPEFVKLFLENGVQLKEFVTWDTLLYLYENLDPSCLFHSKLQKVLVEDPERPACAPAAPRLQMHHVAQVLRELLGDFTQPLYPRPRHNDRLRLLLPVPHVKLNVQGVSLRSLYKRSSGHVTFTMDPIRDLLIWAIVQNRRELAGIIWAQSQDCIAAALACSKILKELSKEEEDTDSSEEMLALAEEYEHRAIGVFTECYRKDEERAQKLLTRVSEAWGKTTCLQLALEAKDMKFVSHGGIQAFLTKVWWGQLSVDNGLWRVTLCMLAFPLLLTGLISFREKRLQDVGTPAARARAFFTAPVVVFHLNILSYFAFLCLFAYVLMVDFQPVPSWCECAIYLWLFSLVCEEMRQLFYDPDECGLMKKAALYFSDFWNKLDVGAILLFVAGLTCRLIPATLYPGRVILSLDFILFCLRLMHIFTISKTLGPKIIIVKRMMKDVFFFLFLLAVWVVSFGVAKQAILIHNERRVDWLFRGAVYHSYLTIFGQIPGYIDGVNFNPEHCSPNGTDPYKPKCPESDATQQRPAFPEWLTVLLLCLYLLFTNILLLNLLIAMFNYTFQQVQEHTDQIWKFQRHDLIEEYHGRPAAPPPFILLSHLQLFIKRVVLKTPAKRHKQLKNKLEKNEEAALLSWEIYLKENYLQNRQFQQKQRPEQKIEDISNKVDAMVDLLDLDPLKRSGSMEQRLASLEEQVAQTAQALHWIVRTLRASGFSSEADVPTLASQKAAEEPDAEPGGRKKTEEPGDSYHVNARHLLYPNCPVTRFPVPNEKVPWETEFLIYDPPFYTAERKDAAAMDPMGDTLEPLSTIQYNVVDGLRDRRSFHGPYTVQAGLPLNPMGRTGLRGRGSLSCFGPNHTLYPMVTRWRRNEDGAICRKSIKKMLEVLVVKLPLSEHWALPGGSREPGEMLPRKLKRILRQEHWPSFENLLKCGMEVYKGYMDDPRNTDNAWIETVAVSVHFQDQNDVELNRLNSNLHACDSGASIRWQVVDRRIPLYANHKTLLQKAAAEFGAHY
T2 sequence (A7T1N0 whole entry): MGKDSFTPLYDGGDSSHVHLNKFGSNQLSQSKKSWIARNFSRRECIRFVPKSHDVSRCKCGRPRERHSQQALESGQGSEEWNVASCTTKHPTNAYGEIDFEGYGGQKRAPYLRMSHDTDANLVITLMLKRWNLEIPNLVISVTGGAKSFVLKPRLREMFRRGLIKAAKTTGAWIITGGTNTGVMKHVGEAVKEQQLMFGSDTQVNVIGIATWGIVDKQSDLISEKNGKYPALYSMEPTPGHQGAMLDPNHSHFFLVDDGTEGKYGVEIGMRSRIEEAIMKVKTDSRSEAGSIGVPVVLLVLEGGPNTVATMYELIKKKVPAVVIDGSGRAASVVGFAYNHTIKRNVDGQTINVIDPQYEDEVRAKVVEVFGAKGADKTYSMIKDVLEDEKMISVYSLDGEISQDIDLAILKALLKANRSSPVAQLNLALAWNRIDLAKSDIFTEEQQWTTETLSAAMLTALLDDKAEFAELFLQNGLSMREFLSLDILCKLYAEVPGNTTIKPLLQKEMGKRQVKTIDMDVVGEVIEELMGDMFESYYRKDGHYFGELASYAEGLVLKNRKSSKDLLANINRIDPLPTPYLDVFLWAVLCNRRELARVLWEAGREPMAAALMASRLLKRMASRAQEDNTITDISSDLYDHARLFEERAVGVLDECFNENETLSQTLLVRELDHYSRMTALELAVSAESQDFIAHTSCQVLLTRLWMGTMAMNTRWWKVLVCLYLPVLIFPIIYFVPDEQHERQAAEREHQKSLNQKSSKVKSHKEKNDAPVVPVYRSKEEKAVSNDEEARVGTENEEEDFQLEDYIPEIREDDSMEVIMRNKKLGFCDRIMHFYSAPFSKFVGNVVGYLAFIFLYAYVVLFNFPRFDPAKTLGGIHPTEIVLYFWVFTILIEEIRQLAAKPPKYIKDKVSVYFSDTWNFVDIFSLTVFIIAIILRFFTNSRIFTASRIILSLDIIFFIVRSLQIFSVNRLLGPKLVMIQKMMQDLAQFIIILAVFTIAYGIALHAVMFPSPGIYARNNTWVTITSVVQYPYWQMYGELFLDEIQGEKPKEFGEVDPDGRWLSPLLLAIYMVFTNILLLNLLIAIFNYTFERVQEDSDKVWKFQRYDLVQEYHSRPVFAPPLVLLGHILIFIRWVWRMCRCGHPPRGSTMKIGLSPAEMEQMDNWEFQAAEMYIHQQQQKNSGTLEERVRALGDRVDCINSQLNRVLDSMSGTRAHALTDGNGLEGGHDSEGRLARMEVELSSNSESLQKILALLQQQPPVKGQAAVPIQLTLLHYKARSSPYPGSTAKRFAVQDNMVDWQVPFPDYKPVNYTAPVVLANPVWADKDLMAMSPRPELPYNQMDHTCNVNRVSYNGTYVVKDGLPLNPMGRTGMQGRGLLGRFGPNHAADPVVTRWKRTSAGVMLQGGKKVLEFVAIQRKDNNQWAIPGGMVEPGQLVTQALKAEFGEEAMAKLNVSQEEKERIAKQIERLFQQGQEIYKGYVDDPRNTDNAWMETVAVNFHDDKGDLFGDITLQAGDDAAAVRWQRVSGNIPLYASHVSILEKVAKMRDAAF

As usually defined, the EC50 is the concentration that produces a half-maximal response. Low readings indicate an effect from little substance, high ones a need for much substance. For the compound `CCCCCCCC(=O)OC[C@H](COP(=O)(O)O[C@@H]1[C@H](O)[C@H](O)[C@@H](OP(=O)(O)O)[C@H](OP(=O)(O)O)[C@H]1O)OC(=O)CCCCCCC` [PIP2], the EC50 amounted to 11.9 ± 1.1 µM at hsTRPM2 and 2.1 ± 0.2 µM at nvTRPM2.
